{"source": "patent US20100190711A1", "about": "“BIG GASTRIN I AS A THERAPEUTIC AGENT” (priority 2007, published 2010)", "system": "drug-resistant Mycobacterium tuberculosis", "conditions": "Mycobacterium tuberculosis resistant to PAS, streptomycin and INH; peptide 10 micrograms per ml; seven days", "note": "Where a SMILES comes first, the peptide text is derived from it. [ ]: non-standard residue; d: D form. pGlu = O=C1CC[C@@H](C(=O)O)N1"}
{"smiles": "CSCC[C@H](NC(=O)[C@H](Cc1c[nH]c2ccccc12)NC(=O)CNC(=O)[C@H](Cc1ccc(O)cc1)NC(=O)[C@H](C)NC(=O)[C@H](CCC(=O)O)NC(=O)[C@H](CCC(=O)O)NC(=O)[C@H](CCC(=O)O)NC(=O)[C@H](CCC(=O)O)NC(=O)[C@H](CCC(=O)O)NC(=O)[C@H](CC(C)C)NC(=O)[C@H](Cc1c[nH]c2ccccc12)NC(=O)[C@@H]1CCCN1C(=O)CNC(=O)[C@H](CCC(N)=O)NC(=O)[C@H](CCCCN)NC(=O)[C@H](CCCCN)NC(=O)[C@H](CO)NC(=O)[C@@H]1CCCN1C(=O)[C@H](CC(=O)O)NC(=O)[C@H](C)NC(=O)[C@@H](NC(=O)[C@H](CC(C)C)NC(=O)[C@H](Cc1c[nH]cn1)NC(=O)[C@@H]1CCCN1C(=O)[C@@H]1CCCN1C(=O)CNC(=O)[C@H](CCC(N)=O)NC(=O)[C@@H]1CCCN1C(=O)CNC(=O)[C@H](CC(C)C)NC(=O)[C@@H]1CCC(=O)N1)C(C)C)C(=O)N[C@@H](CC(=O)O)C(=O)N[C@@H](Cc1ccccc1)C(N)=O", "note": "[Big Gastrin I] ([pGlu]LGPQGPPHLVADPSKKQGPWLEEEEEAYGWMDF-NH2)", "values": [{"measurement": "% inhibition", "value": 100.0, "unit": "%"}]}
